Results reported in article PMC5601486, “Identification of 4-phenylquinolin-2(1H)-one as a specific allosteric inhibitor of Akt” (Scientific Reports, 2017).
Where “and” joins values, the source holds several entries; their conditions need not be identical. Equal values may be shown once.

What was measured:
[1] = test system: TAK1; experiment: KINOMEscan; details: 50000 nM
Procedure: KINOMEscan™ selectivity screen
(§5) Briefly, Kinase-tagged T7 phage strains were grown in parallel in an E. coli host derived from the BL21 strain. E. coli were grown to log-phase and infected with T7 phage from a frozen stock and incubated with shaking at 32°C until lysis (90-150 minutes). The kinases were produced in HEK-293 cells and subsequently tagged with DNA for qPCR detection. Streptavidin-coated magnetic beads were treated with biotinylated small molecule ligands to generate affinity resins for kinase
(§6) inhibitor or DMSO control was performed in polypropylene 384-well plates for 1 hr at room temperature. After wash with PBS buffer containing 0.05% Tween 20, the beads were incubated in elution buffer (PBS containing 0.05 % Tween 20 and 0.5 μM non-biotinylated affinity ligand) for 30 minutes at room temperature. The kinase concentration in the eluates was measured by qPCR.

[2] = test system: WEE2; experiment: KINOMEscan; details: 50000 nM
Procedure: KINOMEscan™ selectivity screen
(§7) The assay was perfor med at DiscoveRx Corporation according the methods published previously5. […] The kinases were produced in HEK-293 cells and subsequently tagged with DNA for qPCR detection. Streptavidin-coated magnetic beads were treated with biotinylated small molecule ligands to generate affinity resins for kinase
as §6

[3] = test system: p38-alpha; experiment: KINOMEscan; details: 50000 nM
Procedure: KINOMEscan™ selectivity screen
as §5, §6

[4] = test system: LATS2; experiment: KINOMEscan; details: 50000 nM
Procedure: KINOMEscan™ selectivity screen
as §5, §6

[5] = test system: PIK3CG; experiment: KINOMEscan; details: 50000 nM
Procedure: KINOMEscan™ selectivity screen
as §5, §6

[6] = test system: ZAK; experiment: KINOMEscan; details: 50000 nM
Procedure: KINOMEscan™ selectivity screen
as §5, §6

[7] = test system: RSK1(Kin.Dom.1-N-terminal); experiment: KINOMEscan; details: 50000 nM
Procedure: KINOMEscan™ selectivity screen
as §5, §6

[8] = test system: CDC2L1; experiment: KINOMEscan; details: 50000 nM
Procedure: KINOMEscan™ selectivity screen
as §5, §6

[9] = test system: YANK2; experiment: KINOMEscan; details: 50000 nM
Procedure: KINOMEscan™ selectivity screen
as §5, §6

[10] = test system: GRK2; experiment: KINOMEscan; details: 50000 nM
Procedure: KINOMEscan™ selectivity screen
as §5, §6

[11] = test system: MEK6; experiment: KINOMEscan; details: 50000 nM
Procedure: KINOMEscan™ selectivity screen
(§8) The assay was perfor med at DiscoveRx Corporation according the methods published previously5. Briefly, Kinase-tagged T7 phage strains were grown in parallel in an E. coli host derived from the BL21 strain. E. coli were grown to log-phase and infected with T7 phage from a frozen stock and incubated with shaking at 32°C until lysis (90-150 minutes). The kinases were produced in HEK-293 cells and subsequently tagged with DNA for qPCR detection. Streptavidin-coated magnetic beads were treated with biotinylated small molecule ligands to generate affinity resins for kinase
as §6

[12] = test system: SGK1; experiment: Western blot of SGK1 S422 phosphorylation; assay type: cell-based, Mouse; details: all concentrations tested including 80 µM
Procedure: (§1) Neuro 2A cells were seeded in 12-well plates in DMEM containing 5% FBS for 24 hr.
(§2) After overnight serum starvation (in 0% FBS DMEM), cells were incubated for 30 min at 37 °C with G7 or LY294002 or Torin 1 (Sigma Aldrich) at various concentrations, or DMSO control. IGF-1 was added to each well at a final concentration of 100 ng/mL. After 30-min incubation cells were washed with cold PBS and lysed with 50 µL lysis buffer containing 1% Triton X-100 and protease/phosphatase inhibitors (Cell Signaling Technology) or RIPA buffer (Santa Cruz Biotech). Samples were electrophoresed in 4–12% Bis-Tris gels (Life Technologies) at 150 V using MOPS SDS running buffer. Proteins were transferred electrophoretically to a PVDF or nitrocellulose membrane. For detection of cleaved […]
(§3) caspase 3 a Trans-Blot Turbo Transfer System (Bio-Rad, 25 V for 25 min) with PVDF membrane were used. […]
(§4) anti- GAPDH (14C10) antibody (#2118) (all antibodies were from Cell Signaling Technology unless indicated, 1:1000 dilution was used) at 4°C overnight, washed three times with TBS-T, then incubated with peroxidase-conjugated secondary antibody (Sigma-Aldrich) for 1 hr at room temperature. […] Band intensity was quantitated using Kodak 1D imaging analysis software. […]

[13] = test system: TRKB; experiment: KINOMEscan; details: 50000 nM
Procedure: KINOMEscan™ selectivity screen
as §7, §6

[14] = test system: ITK; experiment: KINOMEscan; details: 50000 nM
Procedure: KINOMEscan™ selectivity screen
as §5, §6

[15] = test system: STK39; experiment: KINOMEscan; details: 50000 nM
Procedure: KINOMEscan™ selectivity screen
as §8, §6

[16] = target: T1, Akt (Mus musculus, UniProt P31750); experiment: Akt activity assay (immunoprecipitated Akt, K-Lisa); assay type: cell-based
T1 construct: subjected to immunoprecipitation using protein G-plus and anti-AKT PH domain (Millipore); endogenous in cells; host or cells: Neuro 2A (mouse neuroblastoma), IGF-stimulated
T1 sequence (P31750 whole entry, the tested form may be a part): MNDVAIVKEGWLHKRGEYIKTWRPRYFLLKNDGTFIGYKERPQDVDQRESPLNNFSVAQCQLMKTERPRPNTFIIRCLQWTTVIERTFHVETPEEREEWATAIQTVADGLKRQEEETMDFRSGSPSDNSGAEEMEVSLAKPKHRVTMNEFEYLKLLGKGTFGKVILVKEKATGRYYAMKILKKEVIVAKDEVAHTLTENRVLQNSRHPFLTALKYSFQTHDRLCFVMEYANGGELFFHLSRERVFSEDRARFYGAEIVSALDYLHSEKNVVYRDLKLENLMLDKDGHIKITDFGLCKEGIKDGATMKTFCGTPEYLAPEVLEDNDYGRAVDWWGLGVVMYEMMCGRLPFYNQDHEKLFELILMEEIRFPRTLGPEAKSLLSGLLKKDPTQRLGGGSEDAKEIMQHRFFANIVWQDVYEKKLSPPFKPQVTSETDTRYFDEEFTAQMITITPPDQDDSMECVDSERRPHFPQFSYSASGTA
Procedure: After overnight starvation by incubating with serum-free DMEM, Neuro 2A cells were treated with compound G7 at various concentrations for 30 min at room temperature followed by stimulation with IGF (final concentration of 100 ng/mL) for 30 min. Cells were lysed with lysis buffer containing 1% Triton X-100 and protease/phosphatase inhibitors (Cell Signaling Technology) and subjected to immunoprecipitation using protein G-plus and anti-AKT PH domain (Millipore). The activity of the immunopurified Akt was evaluated using a K-Lisa Akt activity kit (Millipore) in accordance with manufacturer’s instructions. The activity was normalized to Akt level in the immunoprecipitates determined by quantitative western blot analysis.

[17] = test system: MUSK; experiment: KINOMEscan; details: 50000 nM
Procedure: KINOMEscan™ selectivity screen
(§9) The kinases were produced in HEK-293 cells and subsequently tagged with DNA for qPCR detection. Streptavidin-coated magnetic beads were treated with biotinylated small molecule ligands to generate affinity resins for kinase
as §6

[18] = test system: NEK3; experiment: KINOMEscan; details: 50000 nM
Procedure: KINOMEscan™ selectivity screen
as §8, §6

[19] = test system: PRKX; experiment: KINOMEscan; details: 50000 nM
Procedure: KINOMEscan™ selectivity screen
as §8, §6

[20] = test system: SNRK; experiment: KINOMEscan; details: 50000 nM
Procedure: KINOMEscan™ selectivity screen
as §7, §6

[21] = test system: MLK3; experiment: KINOMEscan; details: 50000 nM
Procedure: KINOMEscan™ selectivity screen
as §8, §6

[22] = test system: PIK3CA(C420R); experiment: KINOMEscan; details: 50000 nM
Procedure: KINOMEscan™ selectivity screen
as §5, §6

[23] = test system: NEK10; experiment: KINOMEscan; details: 50000 nM
Procedure: KINOMEscan™ selectivity screen
as §8, §6

[24] = test system: MAP4K4; experiment: KINOMEscan; details: 50000 nM
Procedure: KINOMEscan™ selectivity screen
as §8, §6

[25] = test system: FGFR3(G697C); experiment: KINOMEscan; details: 50000 nM
Procedure: KINOMEscan™ selectivity screen
as §8, §6

[26] = test system: CSNK1G2; experiment: KINOMEscan; details: 50000 nM
Procedure: KINOMEscan™ selectivity screen
as §9, §6

[27] = test system: GSK-3β phosphorylation; experiment: Western blot of Akt downstream signaling; assay type: cell-based, Mouse; details: Neuro 2A cells, dose-dependent
Procedure: as §1, §2, §3, §4

[28] = test system: FoxO1 phosphorylation; experiment: Western blot of Akt downstream signaling; assay type: cell-based, Mouse; details: Neuro 2A cells, dose-dependent
Procedure: as §1, §2, §3, §4

[29] = test system: CSNK1G3; experiment: KINOMEscan; details: 50000 nM
Procedure: KINOMEscan™ selectivity screen
as §5, §6

[30] = test system: EPHA4; experiment: KINOMEscan; details: 50000 nM
Procedure: KINOMEscan™ selectivity screen
as §5, §6

[31] = test system: DCAMKL3; experiment: KINOMEscan; details: 50000 nM
Procedure: KINOMEscan™ selectivity screen
as §5, §6

[32] = test system: TIE2; experiment: KINOMEscan; details: 50000 nM
Procedure: KINOMEscan™ selectivity screen
as §8, §6

SMILES: Oc1cc(-c2ccccc2)c2ccccc2n1 [G7, 4-phenylquinolin-2(1H)-one]
- Percent Control [1]: 61%
- Percent Control [2]: 84%
- Percent Control [3]: 83%
- Percent Control [4]: 23%
- Percent Control [5]: 94%
- Percent Control [6]: 100%
- Percent Control [7]: 23%
- Percent Control [8]: 100%
- Percent Control [9]: 100%
- Percent Control [10]: 91%
- Percent Control [11]: 72%
- S422 phosphorylation of SGK1 [12]: did not inhibit
- Percent Control [13]: 56%
- Percent Control [14]: 60%
- Percent Control [15]: 85%
- decrease of Akt activity ([16]; G7 at 50 µM): ~ 80%
- IC50 ([16]; IGF-stimulated Neuro 2A cells, Akt immunoprecipitated, read-out: IC50 on Akt enzymatic activity): 6 µM and 6.2 µM
- Percent Control [17]: 75%
- Percent Control [18]: 68%
- Percent Control [19]: 76%
- Percent Control [20]: 84%
- Percent Control [21]: 88%
- Percent Control [22]: 100%
- Percent Control [23]: 66%
- Percent Control [24]: 100%
- Percent Control [25]: 98%
- Percent Control [26]: 74%
- phosphorylation of GSK-3β [27]: decreased
- phosphorylation of FoxO1 [28]: decreased
- Percent Control [29]: 71%
- Percent Control [30]: 93%
- Percent Control [31]: 91%
- Percent Control [32]: 100%
